Source: ChEMBL document CHEMBL1201862, “PubChem BioAssay data set” (2004)
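Assay format: 96-well plates, 48-hour exposure. Abbreviation: GI50, concentration required for 50% inhibition of growth.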 Active and inactive are the calls of the source. Cut-off read from the data, not from the text of the source: active = GI50 up to about 1.1 µM and inactive = higher.

Assays:
Assay in all cases: NCI-60 cell line screen, 48 h
786-0 = tested on: 786-0
A498 = tested on: A498
DU-145 = tested on: DU-145
EKVX = tested on: EKVX
HCT-116 = tested on: HCT-116
Hs-578T = tested on: Hs-578T
M14 = tested on: M14
NCI-H226 = tested on: NCI-H226
NCI-H460 = tested on: NCI-H460
NCI-H522 = tested on: NCI-H522
OVCAR-3 = tested on: OVCAR-3
OVCAR-4 = tested on: OVCAR-4
OVCAR-8 = tested on: OVCAR-8
RXF 393 = tested on: RXF 393
SF-268 = tested on: SF-268
SK-MEL-2 = tested on: SK-MEL-2
SK-OV-3 = tested on: SK-OV-3
SR = tested on: SR
UACC-62 = tested on: UACC-62
CCRF-CEM = tested on: CCRF-CEM

Measured: GI50

NS(=O)(=O)c1nnc(NC(=O)CCC(=O)O)s1
inactive: 786-0 > 100 µM | A498 > 100 µM | DU-145 > 100 µM | EKVX > 100 µM | HCT-116 > 100 µM | Hs-578T > 100 µM | M14 > 100 µM | NCI-H226 > 100 µM | NCI-H460 > 100 µM | NCI-H522 > 100 µM | OVCAR-3 > 100 µM | OVCAR-4 > 100 µM | OVCAR-8 > 100 µM | RXF 393 > 100 µM | SF-268 > 100 µM | SK-MEL-2 > 100 µM | SK-OV-3 > 100 µM | SR > 100 µM | UACC-62 > 100 µM

Nc1nc(Cl)cc(NCC2(CO)CC(OCc3ccccc3)C2)n1 (stereo not drawn)
inactive: 786-0 > 100 µM | A498 16.9 µM | CCRF-CEM > 100 µM | DU-145 > 100 µM | EKVX 7.82 µM | HCT-116 40.5 µM | Hs-578T > 100 µM | NCI-H226 25.6 µM | NCI-H460 78.7 µM | NCI-H522 93.1 µM | OVCAR-3 49.2 µM | OVCAR-4 27.5 µM | OVCAR-8 71.6 µM | RXF 393 14.2 µM | SF-268 14.8 µM | SK-MEL-2 > 100 µM | SK-OV-3 > 100 µM | SR 25.1 µM | UACC-62 96.4 µM

CCCN(CCC)C1CCc2c(ccc3cc[nH]c23)C1 (stereo not drawn)
inactive: 786-0 > 100 µM | A498 > 100 µM | CCRF-CEM 26.3 µM | DU-145 > 100 µM | EKVX > 100 µM | HCT-116 66.8 µM | Hs-578T > 100 µM | M14 17.7 µM | NCI-H226 > 100 µM | NCI-H460 72.3 µM | NCI-H522 > 100 µM | OVCAR-3 61.4 µM | OVCAR-4 > 100 µM | OVCAR-8 > 100 µM | RXF 393 > 100 µM | SF-268 94.2 µM | SK-MEL-2 > 100 µM | SK-OV-3 > 100 µM | SR 22.9 µM | UACC-62 50.9 µM

CC(=O)C1(c2ccccc2)CCN(Cn2sc3nc(C)cc(C)c3c2=O)CC1
inactive: 786-0 16.9 µM | A498 78.2 µM | CCRF-CEM 10.5 µM | DU-145 31.4 µM | EKVX 23.3 µM | HCT-116 23.1 µM | Hs-578T 30.4 µM | M14 25.8 µM | NCI-H226 97.5 µM | NCI-H460 17.6 µM | NCI-H522 12.4 µM | OVCAR-3 37.5 µM | OVCAR-4 21.9 µM | OVCAR-8 27.4 µM | RXF 393 20.8 µM | SF-268 34.8 µM | SK-MEL-2 44 µM | SK-OV-3 76.4 µM | SR 32.1 µM | UACC-62 28.9 µM

C=C(C(=O)O[C@H]1C/C(C)=C/CC/C(CO)=C/[C@H]2C(=O)OC(=C)[C@H]12)C(O)CO (stereo partly drawn)
inactive: 786-0 5.98 µM | A498 18.5 µM | CCRF-CEM 1.67 µM | DU-145 17.3 µM | EKVX 17.3 µM | HCT-116 7.18 µM | Hs-578T 23.5 µM | M14 12.2 µM | NCI-H226 17.9 µM | NCI-H460 17.2 µM | NCI-H522 1.68 µM | OVCAR-3 6.76 µM | OVCAR-4 20.5 µM | OVCAR-8 15.2 µM | RXF 393 8.28 µM | SF-268 18.7 µM | SK-MEL-2 15.6 µM | SK-OV-3 18.5 µM | SR 2.5 µM | UACC-62 17.5 µM

O=C1NCCN1/N=C/c1c(Cl)n(-c2ccccc2)c2ccccc12
inactive: 786-0 26.1 µM | A498 17.5 µM | CCRF-CEM 29 µM | DU-145 14.6 µM | EKVX 25.5 µM | HCT-116 19.5 µM | Hs-578T 13.4 µM | M14 17.5 µM | NCI-H226 20.4 µM | NCI-H522 16.1 µM | OVCAR-3 66.4 µM | OVCAR-4 48.1 µM | OVCAR-8 22.3 µM | RXF 393 > 10 µM | SF-268 20.1 µM | SK-MEL-2 25 µM | SK-OV-3 46.2 µM | SR 28 µM | UACC-62 16 µM

CC1=NN(c2cccc(Cl)c2)C2(C1=Cc1ccc(N(C)C)cc1)C(Cl)C(=O)N2c1nc2ccccc2s1 (stereo not drawn)
inactive: 786-0 43.1 µM | A498 36.3 µM | CCRF-CEM 50.5 µM | DU-145 97.5 µM | EKVX > 100 µM | HCT-116 60 µM | Hs-578T 23.5 µM | M14 18.7 µM | NCI-H226 > 100 µM | NCI-H460 > 100 µM | NCI-H522 19.1 µM | OVCAR-3 39.5 µM | OVCAR-4 24.2 µM | OVCAR-8 73.3 µM | RXF 393 20.3 µM | SF-268 20.3 µM | SK-MEL-2 60.3 µM | SK-OV-3 34.4 µM | SR > 100 µM

CO/N=C(\C(=O)N(C)n1cnnc1)c1csc(NC(c2ccccc2)(c2ccccc2)c2ccccc2)n1
inactive: 786-0 > 10 µM | A498 > 10 µM | CCRF-CEM > 10 µM | DU-145 > 10 µM | EKVX > 10 µM | HCT-116 > 10 µM | Hs-578T > 10 µM | M14 > 10 µM | NCI-H226 > 10 µM | NCI-H460 > 10 µM | NCI-H522 > 10 µM | OVCAR-3 > 10 µM | OVCAR-4 > 10 µM | OVCAR-8 > 10 µM | RXF 393 > 10 µM | SF-268 > 10 µM | SK-MEL-2 > 10 µM | SK-OV-3 > 10 µM | SR > 10 µM

CN(C(=O)c1ccncc1)c1ccccc1
inactive: 786-0 > 100 µM | A498 > 100 µM | DU-145 > 100 µM | EKVX > 100 µM | HCT-116 > 100 µM | Hs-578T > 100 µM | M14 > 100 µM | NCI-H226 > 100 µM | NCI-H460 > 100 µM | NCI-H522 > 100 µM | OVCAR-3 > 100 µM | OVCAR-4 > 100 µM | OVCAR-8 > 100 µM | RXF 393 > 100 µM | SF-268 > 100 µM | SK-MEL-2 > 100 µM | SK-OV-3 > 100 µM | SR > 100 µM | UACC-62 > 100 µM

O=C(NCc1cccnc1)C(=O)NCc1cccnc1
inactive: 786-0 > 100 µM | A498 > 100 µM | DU-145 > 100 µM | EKVX > 100 µM | HCT-116 > 100 µM | Hs-578T > 100 µM | M14 > 100 µM | NCI-H226 > 100 µM | NCI-H460 > 100 µM | NCI-H522 > 100 µM | OVCAR-3 > 100 µM | OVCAR-4 > 100 µM | OVCAR-8 > 100 µM | RXF 393 > 100 µM | SF-268 > 100 µM | SK-MEL-2 > 100 µM | SK-OV-3 > 100 µM | SR 81.1 µM | UACC-62 > 100 µM
